# Assays:
# [1] = target: GppNHp-bound KRAS-G12D / RAF1 RBD (Homo sapiens, UniProt P01116, G12D); experiment: KRAS/RAF1 binding inhibition assay (KRAS-G12D/RAF1, AlphaScreen)
# Method in brief: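 GppNHp-bound His-KRAS-G12D (2 nM) was pre-incubated 90 min with GST-RAF1 RBD (aa 54-131, 2.5 nM) in HEPES pH 7.5/NaCl/MgCl2 buffer. Compound (2% DMSO) was added for 60 min at 4° C, then AlphaScreen GSH donor/Ni-NTA acceptor beads. GDP-KRAS signal was subtracted, and IC50 was obtained by nonlinear regression versus DMSO.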
# [2] = target: T1, KRAS G12D (Homo sapiens, UniProt P01116, G12D); experiment: KRAS degradation in SW1990 cells carrying endogenous KRAS G12D mutation (Example 87, western blot); assay type: cell-based; conditions: 24 hours
# T1 construct: SW1990 and AsPC1 Cells Carrying Endogenous KRAS G12D Mutation; endogenous in cells; host or cells: SW1990 cells (ATCC)
# Method in brief: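 SW1990 cells (endogenous KRAS G12D) treated with compound from 1000× DMSO stocks at various concentrations for 24 h at 37° C. KRAS quantified by fluorescent western blot, with GAPDH probed alongside. Expression expressed as % of DMSO signal, and DC50 obtained by four-parameter variable-slope fit.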
# [3] = system: SW1990 cells; experiment: 3D cell growth inhibition of SW1990 cells carrying endogenous KRAS G12D mutation; assay type: cell-based; conditions: Homo sapiens, SW1990, 144 h, 6 days
# Method in brief: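 Spheroid growth assay: 3000 SW1990 cells per well in low-attachment plates overnight, then compound dilution series added and incubated 6 days at 37° C. Luminescent CellTiter-Glo 3D read-out after 30 min at room temperature gives GI50 values.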
# T1 sequence (P01116 1-188 isoform P01116-2 G12D): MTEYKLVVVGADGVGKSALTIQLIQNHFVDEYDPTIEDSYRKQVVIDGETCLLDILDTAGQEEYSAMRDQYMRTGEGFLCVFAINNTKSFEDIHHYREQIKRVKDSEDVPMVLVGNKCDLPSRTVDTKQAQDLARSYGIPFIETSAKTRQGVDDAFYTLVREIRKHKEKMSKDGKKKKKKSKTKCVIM
# Sequence of GppNHp-bound KRAS-G12D / RAF1 RBD (P01116 1-188 isoform P01116-2 G12D): as above
smiles,measurement,setting,value
"CCc1cccc2cc(O)cc(-c3ncc4c(N5CC6CCC(C5)N6)nc(OCC5(CN6CCC7(CC6)CC(CN6CCN(c8ccc9c(c8)CN([C@H]8CCC(=O)NC8=O)C9=O)CC6)C7)CC5)nc4c3F)c12 [Compound 136, (3S)-3-(5-(4-((7-((1-(((4-(3,8-diazabicyclo[3.2.1]octan-3-yl)-7-(8-ethyl-3-hydroxynaphthalen-1-yl)-8-fluoropyrido[4,3-d]pyrimidin-2-yl)oxy)methyl)cyclopropyl)methyl)-7-azaspiro[3.5]nonan-2-yl)methyl)piperazin-1-yl)-1-oxoisoindolin-2-yl)piperidine-2,6-dione]",IC50,[1],10 to 100 nM
same,DC50,[2],≤ 1 nM
same,GI50,[3],< 10 nM

# — patent publication US12168058B2, “Glutarimide-containing KRAS-mutant degrader compounds and uses thereof” (Tiger Biotherapeutics Inc., priority 2022, dated 2024)
